# Experimental data from PubChem BioAssay AID1963972 (Molecular Pharmacology Branch, DTP, NCI, 2024).
# Test system: 945468-187-T-J2-PDC spheroids viability
# Assay: Anticancer human tumor 945468-187-T-J2-PDC patient-derived rectal carcinoma cell line growth inhibition [PI3K]
# Conditions: spheroids with HUVEC and MSC; for IC50: curve of first compound; for viability, T/C: stronger effect = lower value
# Summary of the method: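 Multi-cell spheroids combine tumor cells with HUVEC and human MSCs, treated with targeted agents alone or with inavolisib, alpelisib, duvelisib or copanlisib. Concentrations fall in half-log steps from at or near clinical Cmax, or from 10 microM where Cmax is unknown; viability read-out.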
# [1] = second compound 0.0316 µM, first compound 0.0316 µM
# [2] = second compound 0.0316 µM, first compound 0.1 µM
# [3] = second compound 0.0316 µM, first compound 0.316 µM
# [4] = second compound 0.0316 µM, first compound 1 µM
# [5] = second compound 0.0316 µM, first compound 3.16 µM
# [6] = second compound 0.0316 µM, first compound 10 µM
# [7] = second compound 0.1 µM, first compound 0.0316 µM
# [8] = second compound 0.1 µM, first compound 0.1 µM
# [9] = second compound 0.1 µM, first compound 0.316 µM
# [10] = second compound 0.1 µM, first compound 1 µM
# [11] = second compound 0.1 µM, first compound 3.16 µM
# [12] = second compound 0.1 µM, first compound 10 µM
# [13] = second compound 0.316 µM, first compound 0.0316 µM
# [14] = second compound 0.316 µM, first compound 0.1 µM
# [15] = second compound 0.316 µM, first compound 0.316 µM
# [16] = second compound 0.316 µM, first compound 1 µM
# [17] = second compound 0.316 µM, first compound 3.16 µM
# [18] = second compound 0.316 µM, first compound 10 µM
# [19] = second compound 1 µM, first compound 0.0316 µM
# [20] = second compound 1 µM, first compound 0.1 µM
# [21] = second compound 1 µM, first compound 0.316 µM
# [22] = second compound 1 µM, first compound 1 µM
# [23] = second compound 1 µM, first compound 3.16 µM
# [24] = second compound 1 µM, first compound 10 µM
# [25] = second compound 3.16 µM, first compound 0.0316 µM
# [26] = second compound 3.16 µM, first compound 0.1 µM
# [27] = second compound 3.16 µM, first compound 0.316 µM
# [28] = second compound 3.16 µM, first compound 1 µM
# [29] = second compound 3.16 µM, first compound 3.16 µM
# [30] = second compound 3.16 µM, first compound 10 µM
# [31] = second compound 10 µM, first compound 0.0316 µM
# [32] = second compound 10 µM, first compound 0.1 µM
# [33] = second compound 10 µM, first compound 0.316 µM
# [34] = second compound 10 µM, first compound 1 µM
# [35] = second compound 10 µM, first compound 3.16 µM
# [36] = second compound 10 µM, first compound 10 µM
# [37] = second compound 0.0316 µM, first compound 0.00316 µM
# [38] = second compound 0.0316 µM, first compound 0.01 µM
# [39] = second compound 0.1 µM, first compound 0.00316 µM
# [40] = second compound 0.1 µM, first compound 0.01 µM
# [41] = second compound 0.316 µM, first compound 0.00316 µM
# [42] = second compound 0.316 µM, first compound 0.01 µM
# [43] = second compound 1 µM, first compound 0.00316 µM
# [44] = second compound 1 µM, first compound 0.01 µM
# [45] = second compound 3.16 µM, first compound 0.00316 µM
# [46] = second compound 3.16 µM, first compound 0.01 µM
# [47] = second compound 10 µM, first compound 0.00316 µM
# [48] = second compound 10 µM, first compound 0.01 µM
# 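Also: spheroids exposed to compounds for seven days before reading.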
structure (smiles),measurement,setting,value
CC(C)NCC(C(=O)N1CCN(c2ncnc3c2C(C)CC3O)CC1)c1ccc(Cl)cc1 (stereo not drawn) + CC(Nc1ncnc2nc[nH]c12)c1cc2cccc(Cl)c2c(=O)n1-c1ccccc1,IC50,second compound 0.0316 µM,> 10 µM
same,IC50,second compound 0.1 µM,> 10 µM
same,IC50,second compound 0.316 µM,> 10 µM
same,IC50,second compound 1 µM,> 10 µM
same,IC50,second compound 3.16 µM,> 10 µM
same,IC50,second compound 10 µM,> 10 µM
same,"viability, T/C",[1],88.1%
same,"viability, T/C",[2],82%
same,"viability, T/C",[3],111%
same,"viability, T/C",[4],74.2%
same,"viability, T/C",[5],116%
same,"viability, T/C",[6],77.2%
same,"viability, T/C",[7],97.1%
same,"viability, T/C",[8],93.1%
same,"viability, T/C",[9],78%
same,"viability, T/C",[10],84%
same,"viability, T/C",[11],89.7%
same,"viability, T/C",[12],77.7%
same,"viability, T/C",[13],86.4%
same,"viability, T/C",[14],76.6%
same,"viability, T/C",[15],107%
same,"viability, T/C",[16],97.5%
same,"viability, T/C",[17],100%
same,"viability, T/C",[18],76.9%
same,"viability, T/C",[19],69.1%
same,"viability, T/C",[20],97.6%
same,"viability, T/C",[21],86.4%
same,"viability, T/C",[22],106%
same,"viability, T/C",[23],92.6%
same,"viability, T/C",[24],67.9%
same,"viability, T/C",[25],80.8%
same,"viability, T/C",[26],75.3%
same,"viability, T/C",[27],77%
same,"viability, T/C",[28],116%
same,"viability, T/C",[29],84.7%
same,"viability, T/C",[30],76.9%
same,"viability, T/C",[31],93.7%
same,"viability, T/C",[32],96.1%
same,"viability, T/C",[33],86.2%
same,"viability, T/C",[34],103%
same,"viability, T/C",[35],90.4%
same,"viability, T/C",[36],81%
CCN1CCN(Cc2ccc(Nc3ncc(F)c(-c4cc(F)c5nc(C)n(C(C)C)c5c4)n3)nc2)CC1 + CC(Nc1ncnc2nc[nH]c12)c1cc2cccc(Cl)c2c(=O)n1-c1ccccc1,IC50,second compound 0.0316 µM,> 1 µM
same,IC50,second compound 0.1 µM,> 1 µM
same,IC50,second compound 0.316 µM,> 1 µM
same,IC50,second compound 1 µM,> 1 µM
same,IC50,second compound 3.16 µM,> 1 µM
same,IC50,second compound 10 µM,> 1 µM
same,"viability, T/C",[37],91.3%
same,"viability, T/C",[38],103%
same,"viability, T/C",[1],98.8%
same,"viability, T/C",[2],92.9%
same,"viability, T/C",[3],100%
same,"viability, T/C",[4],79.7%
same,"viability, T/C",[39],93.5%
same,"viability, T/C",[40],122%
same,"viability, T/C",[7],118%
same,"viability, T/C",[8],89.5%
same,"viability, T/C",[9],84.2%
same,"viability, T/C",[10],71.6%
same,"viability, T/C",[41],83.9%
same,"viability, T/C",[42],76.9%
same,"viability, T/C",[13],86%
same,"viability, T/C",[14],84.1%
same,"viability, T/C",[15],95.8%
same,"viability, T/C",[16],67%
same,"viability, T/C",[43],120%
same,"viability, T/C",[44],98%
same,"viability, T/C",[19],85.4%
same,"viability, T/C",[20],87.8%
same,"viability, T/C",[21],88.7%
same,"viability, T/C",[22],74.2%
same,"viability, T/C",[45],90.8%
same,"viability, T/C",[46],98.8%
same,"viability, T/C",[25],94.2%
same,"viability, T/C",[26],87.2%
same,"viability, T/C",[27],77.8%
same,"viability, T/C",[28],59.5%
same,"viability, T/C",[47],81.5%
same,"viability, T/C",[48],76.4%
same,"viability, T/C",[31],104%
same,"viability, T/C",[32],98.8%
same,"viability, T/C",[33],95%
same,"viability, T/C",[34],53.6%
C[C@@H](NC(=O)c1ncnc(N)c1Cl)c1ncc(C(=O)Nc2cc(C(F)(F)F)c(Cl)cn2)s1 + CC(Nc1ncnc2nc[nH]c12)c1cc2cccc(Cl)c2c(=O)n1-c1ccccc1,IC50,second compound 0.0316 µM,> 10 µM
same,IC50,second compound 0.1 µM,> 10 µM
same,IC50,second compound 0.316 µM,> 10 µM
same,IC50,second compound 1 µM,> 10 µM
same,IC50,second compound 3.16 µM,> 10 µM
same,IC50,second compound 10 µM,> 10 µM
same,"viability, T/C",[1],83.6%
same,"viability, T/C",[2],82.8%
same,"viability, T/C",[3],113%
same,"viability, T/C",[4],106%
same,"viability, T/C",[5],109%
same,"viability, T/C",[6],86.2%
same,"viability, T/C",[7],119%
same,"viability, T/C",[8],108%
same,"viability, T/C",[9],85.5%
same,"viability, T/C",[10],68.7%
same,"viability, T/C",[11],121%
same,"viability, T/C",[12],104%
same,"viability, T/C",[13],119%
same,"viability, T/C",[14],90.9%
same,"viability, T/C",[15],99.3%
same,"viability, T/C",[16],92.2%
same,"viability, T/C",[17],93.3%
same,"viability, T/C",[18],80.7%
same,"viability, T/C",[19],92.7%
same,"viability, T/C",[20],108%
same,"viability, T/C",[21],81.3%
same,"viability, T/C",[22],95%
same,"viability, T/C",[23],83.1%
same,"viability, T/C",[24],90.1%
same,"viability, T/C",[25],103%
same,"viability, T/C",[26],110%
same,"viability, T/C",[27],77.7%
same,"viability, T/C",[28],124%
same,"viability, T/C",[29],110%
same,"viability, T/C",[30],104%
same,"viability, T/C",[31],83%
same,"viability, T/C",[32],123%
same,"viability, T/C",[33],110%
same,"viability, T/C",[34],84.4%
same,"viability, T/C",[35],119%
same,"viability, T/C",[36],108%
Cn1ncnc1[C@H]1c2n[nH]c(=O)c3cc(F)cc(c23)N[C@@H]1c1ccc(F)cc1 + CC(Nc1ncnc2nc[nH]c12)c1cc2cccc(Cl)c2c(=O)n1-c1ccccc1,IC50,second compound 0.0316 µM,> 0.1 µM
same,IC50,second compound 0.1 µM,> 0.1 µM
same,IC50,second compound 0.316 µM,> 0.1 µM
same,IC50,second compound 1 µM,> 0.1 µM
same,IC50,second compound 3.16 µM,> 0.1 µM
same,IC50,second compound 10 µM,> 0.1 µM
same,"viability, T/C","second compound 0.0316 µM, first compound 0.000316 µM",100%
same,"viability, T/C","second compound 0.0316 µM, first compound 0.001 µM",106%
same,"viability, T/C",[37],85.3%
same,"viability, T/C",[38],93.1%
same,"viability, T/C",[1],87.3%
same,"viability, T/C",[2],89.8%
same,"viability, T/C","second compound 0.1 µM, first compound 0.000316 µM",89%
same,"viability, T/C","second compound 0.1 µM, first compound 0.001 µM",90.3%
same,"viability, T/C",[39],88%
same,"viability, T/C",[40],88%
same,"viability, T/C",[7],103%
same,"viability, T/C",[8],109%
same,"viability, T/C","second compound 0.316 µM, first compound 0.000316 µM",115%
same,"viability, T/C","second compound 0.316 µM, first compound 0.001 µM",102%
same,"viability, T/C",[41],130%
same,"viability, T/C",[42],97.5%
same,"viability, T/C",[13],121%
same,"viability, T/C",[14],96.8%
same,"viability, T/C","second compound 1 µM, first compound 0.000316 µM",88.8%
same,"viability, T/C","second compound 1 µM, first compound 0.001 µM",100%
same,"viability, T/C",[43],84.7%
same,"viability, T/C",[44],108%
same,"viability, T/C",[19],103%
same,"viability, T/C",[20],110%
same,"viability, T/C","second compound 3.16 µM, first compound 0.000316 µM",120%
same,"viability, T/C","second compound 3.16 µM, first compound 0.001 µM",108%
same,"viability, T/C",[45],116%
same,"viability, T/C",[46],128%
same,"viability, T/C",[25],99.4%
same,"viability, T/C",[26],111%
same,"viability, T/C","second compound 10 µM, first compound 0.000316 µM",117%
same,"viability, T/C","second compound 10 µM, first compound 0.001 µM",103%
same,"viability, T/C",[47],112%
same,"viability, T/C",[48],105%
same,"viability, T/C",[31],102%
same,"viability, T/C",[32],109%
